# Laboratory results from US20190022239A1, “NOVEL BIOMOLECULE CONJUGATES AND USES THEREFOR” (The University of Western Australia, priority 2016, published 2019).
# Ends that are not written are not given here. FAM = fluorescein label (FAM, fluorescein-labelled)
# Columns and labels:
# tumour ECM = experiment: Co-localisation of CSG with ECM markers in tumour tissue sections; assay type: binding, mouse and human
# Description: Following incubation of whole tissue (for mouse insulinoma and human breast cancer) or 8 μm tissue cross section, (for mouse and human HCC) with FAM-CSG peptide, tissue cross sections were co-stained with 0.3 μg in 100 μL of anti-nidogen-1 (Rat anti-monoclonal mouse nidogen-1, Millipore) or anti-collagen-1 (Rabbit polyclonal collagen 1, Abeam) markers of ECM, for 1 hr at room temperature. Stained sections were washed 3× with 1×TBS buffer. Tissue sections were re-incubated with donkey anti-Rat or Rabbit IgG (H+L) secondary antibody Alexa 594 (0.4 μg in 100 μL for 30 min. at room temperature), followed by 3×wash with 1×TBS buffer. Co-localisation of CSG with these ECM markers highlights the specificity of CSG binding to tumour ECM (FIG. 2). Co-localisation was not observed in normal healthy tissue.
# fibrotic tissue = experiment: Binding to liver tissue sections of mice fed choline deficient diet; parameters: species or system mice (C57BL/6 strain)
# Description: Mice (C57BL/6 strain) were fed a choline deficient diet, for 4 weeks (early liver fibrosis), 16 weeks (advanced fibrosis-cirrhosis) or 28 weeks (advanced HCC), after which liver tissue was examined. Acetone-fixed fresh frozen 8 μm issue cross sections were incubated with either 1 μM FAM-CSG or 5 μM FAM-ARA for 30 min in 1×PBS buffer at room temperature, FAM-CSG or FAM-ARA binding were confirmed using anti-FITC-HRP antibody staining.
# occluded arteries = experiment: Dipping assay of occluded arteries from a human patient; assay type: binding; conditions: occlusive peripheral vascular disease, after limb amputation
# human breast carcinoma = experiment: Dipping of fresh human breast carcinoma samples in FAM-labelled peptide; assay type: binding
# Description: Fresh, untreated samples of human breast carcimoma were dipped, 1 hr post surgery, in 20 μM FAM-CSG for 1 hr, followed by 3×1.5 min washes with 1× PBS.
# This absence of binding of PAM-ARA was confirmed using anti-fluorescein antibody (data not shown).
# aorta containing plaque = experiment: In vivo accumulation of FAM-CSG in aorta containing plaque; parameters: species or system mice; conditions: 1 hr after i.v. injection of 100 μl 1 mM FAM-CSG
# [1] = system: plaques from the ApoE null mice; experiment: Incubation of aorta with FAM-labelled peptide; assay type: binding; conditions: 20 nmol/ml
# Description: To determine whether CSG also recognises fibroatheroma, healthy aorta from wild type C57BL/6 mice and aorta from ApoE null mice were incubated with 20 nmol/ml fluorescein-labelled FAM-CSG or ARA control.
# [2] = system: hepatocellular carcinoma or breast carcinoma; experiment: FAM-CSG accumulation in tumours after tail vein injection; assay type: in vivo, mice; conditions: 100 μL of 1 mM i.v., tissue harvested 1 hr after injection
# Description: Fluorescein-labelled (FAM)-CSG (CSGRRSSKC; SEQ ID NO:1) (100 μL of 1 mM stock made in sterile 1× PBS) was injected into the tail vein of tumour-bearing mice (hepatocellular carcinoma or breast carcinoma, in C3H and BALB/c strains, respectively). Tissue was harvested without perfusion 1 hr after injection and peptide accumulation observed under UV illumination. […] Homing was specific to tumours, with only clearance organs (intestines, kidneys) showing limited accumulation of FAM-CSG.
substance,measurement,setting,value
CSGRRSSKC,co-localisation with ECM markers in tumours,"tumour ECM; murine insulinoma and HCC, human breast carcinoma and HCC","co-localises with two known ECM markers, collagen-1 and nidogen-1"
same,co-localisation with ECM markers in normal healthy tissue,tumour ECM; normal healthy tissue,not observed
same,binding to fibrotic liver tissue,"fibrotic tissue; 4, 16 or 28 weeks choline deficient diet, 1 μM FAM-CSG, 30 min",effectively binds fibrotic tissue at all stages
same,binding to human occluded arteries and plaques,occluded arteries,specific binding of CSG to the occluded arteries and specific accumulation of CSG in plaques
same,effect of preincubation with unlabeled peptide on FAM-CSG accumulation,human breast carcinoma; excess 1 mg unlabeled CSG,abolished the FAM-CSG specific penetration and accumulation in tumours
same,co-localisation of in vivo accumulation with ECM marker,aorta containing plaque,co-localises with the ECM marker laminin
"FAM-ARA: control fluorescein-labelled (FAM)-ARA peptide, ARALPSQRSR (SEQ ID NO:5) ({FAM}-ARALPSQRSR) [reference compound]",binding to human breast carcinoma tissue,human breast carcinoma; control peptide,showed no binding to the human breast carcinoma tissue
FAM-CSG: Fluorescein-labelled (FAM)-CSG (CSGRRSSKC; SEQ ID NO:1) ({FAM}-CSGRRSSKC; cysteine pairing not given here),co-localisation with ECM marker nidogen-1 in fibrotic liver,"fibrotic tissue; 1 μM, 30 min",co-localised with staining for the ECM marker nidogen-1
same,binding to normal liver,fibrotic tissue; mice fed normal chow diet,limited binding
same,binding to aortic plaques,[1],"specifically bound to, and accumulated in, plaques"
same,binding to human breast carcinoma tissue,human breast carcinoma; 20 μM for 1 hr,bound specifically to the tumour tissue and not to normal or marginal tissue
same,peptide accumulation in tumours under UV illumination,[2],accumulates in both tumour types
